In ChEMBL document CHEMBL5390280, “Design, Synthesis, and Biological Evaluation of an Orally Bioavailable, Potent, and Selective ROCK2 Inhibitor for Psoriasis Treatment” (J Med Chem, 2023):
pIC50: −log10 of the molar value.

Assays:
[1] = target: T1, Rho-associated protein kinase 1 (Homo sapiens, UniProt Q13464); experiment: Inhibition of ROCK1 (unknown origin) by HTRF assay
[2] = Selectivity ratio of IC50 for ROCK1 (unknown origin) to IC50 for ROCK2 (unknown origin)
[3] = target: T2, Rho-associated protein kinase 2 (Homo sapiens, UniProt O75116); experiment: Inhibition of ROCK2 (unknown origin) by HTRF assay
[4] = target: T2, Rho-associated protein kinase 2; experiment: Inhibition of ROCK2 (unknown origin)
[5] = target: T1, Rho-associated protein kinase 1; experiment: Inhibition of ROCK1 (unknown origin)

T2 sequence (O75116 whole entry): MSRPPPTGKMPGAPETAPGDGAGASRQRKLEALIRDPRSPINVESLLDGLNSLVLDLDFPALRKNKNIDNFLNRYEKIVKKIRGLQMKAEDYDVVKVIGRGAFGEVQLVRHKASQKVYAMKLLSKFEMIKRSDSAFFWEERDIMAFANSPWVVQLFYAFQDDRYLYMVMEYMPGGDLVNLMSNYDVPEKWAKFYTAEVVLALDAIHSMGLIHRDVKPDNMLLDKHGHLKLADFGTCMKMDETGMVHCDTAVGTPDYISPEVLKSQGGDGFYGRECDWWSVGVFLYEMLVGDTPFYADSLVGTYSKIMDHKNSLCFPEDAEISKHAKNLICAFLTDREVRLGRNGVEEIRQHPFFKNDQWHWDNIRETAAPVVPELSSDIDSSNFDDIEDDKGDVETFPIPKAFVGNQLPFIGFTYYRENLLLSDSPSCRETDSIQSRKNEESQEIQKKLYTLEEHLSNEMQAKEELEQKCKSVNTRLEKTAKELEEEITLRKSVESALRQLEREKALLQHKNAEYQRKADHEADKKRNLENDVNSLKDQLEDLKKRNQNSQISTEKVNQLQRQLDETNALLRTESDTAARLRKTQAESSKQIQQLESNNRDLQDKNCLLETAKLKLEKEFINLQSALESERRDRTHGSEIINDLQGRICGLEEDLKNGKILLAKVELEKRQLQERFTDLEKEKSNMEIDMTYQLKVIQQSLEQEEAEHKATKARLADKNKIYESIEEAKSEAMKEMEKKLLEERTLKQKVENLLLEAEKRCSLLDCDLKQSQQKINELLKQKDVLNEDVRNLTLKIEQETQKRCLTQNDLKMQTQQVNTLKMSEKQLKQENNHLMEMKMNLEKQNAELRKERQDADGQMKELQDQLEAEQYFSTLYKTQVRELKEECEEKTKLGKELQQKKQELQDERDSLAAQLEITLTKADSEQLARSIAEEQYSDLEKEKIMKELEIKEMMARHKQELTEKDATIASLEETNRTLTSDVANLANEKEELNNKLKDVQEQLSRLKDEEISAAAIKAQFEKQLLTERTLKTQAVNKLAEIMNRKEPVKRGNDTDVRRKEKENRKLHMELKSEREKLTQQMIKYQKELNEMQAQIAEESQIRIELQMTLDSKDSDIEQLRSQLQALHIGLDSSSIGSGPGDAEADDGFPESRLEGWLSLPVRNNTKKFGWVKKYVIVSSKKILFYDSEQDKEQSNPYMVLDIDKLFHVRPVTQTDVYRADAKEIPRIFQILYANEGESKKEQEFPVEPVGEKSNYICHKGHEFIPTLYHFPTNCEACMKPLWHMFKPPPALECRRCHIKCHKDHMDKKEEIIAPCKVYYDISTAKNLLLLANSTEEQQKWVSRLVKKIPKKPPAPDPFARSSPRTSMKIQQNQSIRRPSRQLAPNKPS
T1 sequence (Q13464 whole entry): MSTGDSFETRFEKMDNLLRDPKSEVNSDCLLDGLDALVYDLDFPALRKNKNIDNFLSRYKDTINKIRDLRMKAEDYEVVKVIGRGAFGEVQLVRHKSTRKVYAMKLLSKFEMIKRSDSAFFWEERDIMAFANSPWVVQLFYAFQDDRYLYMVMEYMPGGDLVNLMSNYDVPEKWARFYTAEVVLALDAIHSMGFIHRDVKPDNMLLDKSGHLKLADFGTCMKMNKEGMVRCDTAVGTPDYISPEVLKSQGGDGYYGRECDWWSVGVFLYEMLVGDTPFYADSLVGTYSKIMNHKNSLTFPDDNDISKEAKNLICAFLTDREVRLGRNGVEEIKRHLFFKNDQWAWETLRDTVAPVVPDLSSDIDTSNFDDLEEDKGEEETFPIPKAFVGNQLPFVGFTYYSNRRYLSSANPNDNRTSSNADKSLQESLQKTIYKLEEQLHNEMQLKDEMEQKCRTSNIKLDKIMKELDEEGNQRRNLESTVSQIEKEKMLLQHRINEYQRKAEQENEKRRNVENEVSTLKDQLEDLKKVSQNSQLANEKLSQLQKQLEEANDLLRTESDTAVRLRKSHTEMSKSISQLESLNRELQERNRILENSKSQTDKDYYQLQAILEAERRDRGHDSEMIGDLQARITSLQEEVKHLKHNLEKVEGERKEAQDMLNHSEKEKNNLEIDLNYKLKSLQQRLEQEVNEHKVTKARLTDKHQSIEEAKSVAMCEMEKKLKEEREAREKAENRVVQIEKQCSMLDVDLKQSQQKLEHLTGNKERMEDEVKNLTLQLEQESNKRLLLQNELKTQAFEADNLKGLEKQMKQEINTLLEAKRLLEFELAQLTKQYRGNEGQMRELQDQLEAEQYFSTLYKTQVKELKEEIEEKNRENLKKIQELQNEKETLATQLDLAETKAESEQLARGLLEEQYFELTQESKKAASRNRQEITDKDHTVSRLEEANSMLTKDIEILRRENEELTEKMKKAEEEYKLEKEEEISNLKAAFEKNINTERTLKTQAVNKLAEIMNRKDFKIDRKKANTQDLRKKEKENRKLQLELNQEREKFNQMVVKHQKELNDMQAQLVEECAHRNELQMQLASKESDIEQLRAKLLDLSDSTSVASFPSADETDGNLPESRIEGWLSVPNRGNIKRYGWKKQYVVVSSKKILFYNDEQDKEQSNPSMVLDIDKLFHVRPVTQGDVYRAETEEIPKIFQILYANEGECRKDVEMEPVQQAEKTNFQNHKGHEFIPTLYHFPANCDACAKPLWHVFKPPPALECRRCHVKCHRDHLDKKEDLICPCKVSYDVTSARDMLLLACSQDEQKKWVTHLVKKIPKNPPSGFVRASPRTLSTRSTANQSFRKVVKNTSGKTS

| pIC50 [1] | Ratio IC50 [2] | pIC50 [3] | pIC50 [4] | pIC50 [5] | Structure (SMILES) |
| --- | --- | --- | --- | --- | --- |
| 6.56 | 15 | 7.73 |  |  | Cc1cccn(-c2cccc(CN[C@H]3CCC[C@H](Nc4ccc5[nH]ncc5c4)C3)c2)c1=O |
| 6.51 | 52 | 8.21 |  |  | CCc1ccn(-c2cccc(CN[C@H]3CCC[C@@H](Nc4ccc5[nH]ncc5c4)C3)c2)c(=O)c1C |
| 6.33 | 4 | 6.88 |  |  | NC(=O)c1ccn(-c2cccc(CN[C@H]3CCC[C@@H](Nc4ccc5[nH]ncc5c4)C3)c2)c(=O)c1 |
| 6.47 | 216 | 8.80 |  |  | CC(C)(C)c1ccn(-c2cccc(CN[C@H]3CCC[C@@H](Nc4ccc5[nH]ncc5c4)C3)c2)c(=O)c1 |
|  |  | 6.25 |  |  | Cc1cc(=O)n(-c2cccc(CN[C@H]3CCC[C@H](Nc4ccc5[nH]ncc5c4)C3)c2)cc1N |
| 6.62 | 2 | 6.99 |  |  | NC(=O)c1ccn(-c2cccc(CN[C@H]3CCC[C@H](Nc4ccc5[nH]ncc5c4)C3)c2)c(=O)c1 |
| 7.02 | 32 | 8.52 |  |  | O=c1cc(-c2ccccc2)ccn1-c1cccc(CN[C@H]2CCC[C@H](Nc3ccc4[nH]ncc4c3)C2)c1 |
|  |  | 7.14 |  |  | CC(C)CCC(=O)Nc1ccn([C@H]2CC[C@H](O[C@H]3O[C@H](C)[C@@H](N(C)C)[C@H](O)[C@H]3O)[C@@H](C)O2)c(=O)n1 |
| 6.09 | 68 | 7.92 |  |  | Cc1ccn(-c2cccc(CN[C@H]3CCC[C@@H](Nc4ccc5[nH]ncc5c4)C3)c2)c(=O)c1 |
| 6.57 | 4 | 7.11 |  |  | N#Cc1ccn(-c2cccc(CN[C@H]3CCC[C@@H](Nc4ccc5[nH]ncc5c4)C3)c2)c(=O)c1 |
| 6.09 | 5 | 6.82 |  |  | Cc1cccn(-c2cccc(CN[C@H]3CCC[C@@H](Nc4ccc5[nH]ncc5c4)C3)c2)c1=O |
|  |  | 7.08 |  |  | Nc1nc(=O)n(-c2cccc(CN[C@H]3CCC[C@@H](Nc4ccc5[nH]ncc5c4)C3)c2)cc1F |
| 6.19 | 9 | 7.13 |  |  | O=c1ccccn1-c1cccc(CN[C@H]2CCC[C@@H](Nc3ccc4[nH]ncc4c3)C2)c1 |
| 6.55 | 2 | 6.76 |  |  | O=c1cc(C(F)(F)F)ccn1-c1cccc(CN[C@H]2CCC[C@H](Nc3ccc4[nH]ncc4c3)C2)c1 |
|  |  | 9.00 |  |  | Nc1ccn(-c2cccc(CN3CCCC(Nc4ccc5[nH]ncc5c4)C3)c2)c(=O)n1 (stereo not given) |
| 6.99 | 1 | 6.86 |  |  | Cc1ccc(=O)n(-c2cccc(CN[C@H]3CCC[C@@H](Nc4ccc5[nH]ncc5c4)C3)c2)c1 |
|  |  | 6.36 |  |  | Cc1cc(=O)n(-c2cccc(CN[C@H]3CCC[C@@H](Nc4ccc5[nH]ncc5c4)C3)c2)cc1N |
| 6.67 | 8 | 7.57 |  |  | Cc1cc(=O)n(-c2cccc(CN[C@H]3CCC[C@@H](Nc4ccc5[nH]ncc5c4)C3)c2)cc1F |

| pIC50 [1] | Ratio IC50 [2] | pIC50 [3] | pIC50 [4] | pIC50 [5] | Structure (SMILES) |
| --- | --- | --- | --- | --- | --- |
| 6.56 | 3 | 7.06 |  |  | O=c1cc(F)ccn1-c1cccc(CN[C@H]2CCC[C@@H](Nc3ccc4[nH]ncc4c3)C2)c1 |
|  |  | 9.15 |  |  | Nc1ccn(-c2ccc(CNC3CCCC(Nc4ccc5[nH]ncc5c4)C3)cc2)c(=O)n1 (stereo not given) |
| 6.68 | 16 | 7.88 |  |  | CCc1ccn(-c2cccc(CN[C@H]3CCC[C@H](Nc4ccc5[nH]ncc5c4)C3)c2)c(=O)c1C |
|  |  | 8.30 |  |  | Nc1ccn(-c2ccc(CN3CCCC(Nc4ccc5[nH]ncc5c4)C3)cc2)c(=O)n1 (stereo not given) |
| 6.82 | 4 | 7.45 |  |  | Cc1ccc(=O)n(-c2cccc(CN[C@H]3CCC[C@H](Nc4ccc5[nH]ncc5c4)C3)c2)c1 |
|  |  | 7.11 |  |  | Nc1ccn(-c2cccc(CN[C@H]3CCC[C@@H](Nc4ccc5[nH]ncc5c4)C3)c2)c(=O)c1 |
| 6.68 | 162 | 8.89 |  |  | CC(C)(C)c1ccn(-c2cccc(CN[C@H]3CCC[C@H](Nc4ccc5[nH]ncc5c4)C3)c2)c(=O)c1 |
| 6.01 | 5 | 6.68 |  |  | O=c1cc(C(F)(F)F)ccn1-c1cccc(CN[C@H]2CCC[C@@H](Nc3ccc4[nH]ncc4c3)C2)c1 |
|  |  | 7.27 |  |  | Nc1ccn(-c2cccc(CN[C@H]3CCC[C@H](Nc4ccc5[nH]ncc5c4)C3)c2)c(=O)c1 |
| 6.79 | 4 | 7.37 |  |  | O=c1ccccn1-c1cccc(CN[C@H]2CCC[C@H](Nc3ccc4[nH]ncc4c3)C2)c1 |
| 6.68 | 6 | 7.44 |  |  | O=c1cc(F)ccn1-c1cccc(CN[C@H]2CCC[C@H](Nc3ccc4[nH]ncc4c3)C2)c1 |
| 7.00 | 59 | 8.77 |  |  | O=c1cc(-c2ccccc2)ccn1-c1cccc(CN[C@H]2CCC[C@@H](Nc3ccc4[nH]ncc4c3)C2)c1 |
|  |  | 8.70 |  |  | Nc1ccn(-c2ccc(CN3CCCCC(Nc4ccc5[nH]ncc5c4)C3)cc2)c(=O)n1 (stereo not given) |
| 6.77 | 7 | 7.59 |  |  | Cc1ccn(-c2cccc(CN[C@H]3CCC[C@H](Nc4ccc5[nH]ncc5c4)C3)c2)c(=O)c1 |
|  |  |  | 7.92 | 6.82 | COc1cc(-c2cn[nH]c2)cc2c(=O)[nH]c(C3COc4ccc(OCCN(C)C)cc4C3)nc12 (stereo not given) |
|  |  | 9.70 |  |  | Nc1ccn(-c2cccc(CNC3CCCC(Nc4ccc5[nH]ncc5c4)C3)c2)c(=O)n1 (stereo not given) |
|  |  | 7.18 |  |  | Nc1nc(=O)n(-c2cccc(CN[C@H]3CCC[C@H](Nc4ccc5[nH]ncc5c4)C3)c2)cc1F |
